# Test results: patent publication US20130190324A1, “TOPICAL OCULAR DRUG DELIVERY” (The Regents of the University of Colorado, a body corporate, priority 2011, published 2013)
# Entries after “also recorded” stand apart in the source; their conditions may differ. Read-outs that look alike come from different tables or passages of the source. Where a SMILES comes first, the peptide text is derived from it. [ ]: non-standard residue; d: D form. Sar = CNCC(=O)O
# Assays:
# [1] = physchem
# [2] = test system: New Zealand white rabbit sclera-choroid-RPE (SCRPE); experiment: In vitro transport across rabbit sclera-choroid-RPE (Ussing chamber); type: in vitro ADME; conditions: for cumulative % transport / permeability compared with GFX (in words): rabbit SCRPE
# Protocol: (§1) In vitro transport of […], and GFX-LYS were carried out across the New Zealand white rabbit cornea and sclera-choroid-[…]). Rabbit eyes were obtained within 24 hr of harvesting from Pel-Freez Biologicals (Rogers, Ark.) and shipped overnight in Hank's balanced salt solution on wet ice. Eyes were used immediately upon arrival. Eyes were washed with assay buffer and cleaned from the muscle and unwanted tissues. […] The small part of the sclera left with cornea helps in mounting the cornea on Ussing chambers. For isolation of the SCRPE, anterior and posterior parts were separated by a circumferential cut at the limbus. […] After separation of the retina, the eye cup was flattened with small cuts around the globe. […] A circulating water bath was used to maintain the temperature at 37° C. during the transport study. The pH of the assay buffer was maintained at 7.4 using 95% air-5% CO2 aeration which also helps in stirring of bathing solutions. Samples were collected (200 μL) from the receiver side every 30 minute for 3 hr and the lost volume was replaced with fresh assay buffer pre-equilibrated at 37° C. GFX levels were analyzed using an LC-MS/MS assay. […] GFX concentrations in the transport study and ocular tissue samples were analyzed using a validated LC-MS/MS method. […] Chromatographic separation of GFX and the internal standard moxifloxacin was performed on Obelisc C18 column (2.1×10 mm, 3 μm). Elution of analytes was performed using linear gradient elution with mobile phase consisting of 5 mM ammonium formate (pH 3.5) and acetonitrile (pH 3.5) with a flow rate of 300 μl/min and total run time of 6 min.
# [3] = test system: New Zealand white rabbit cornea; experiment: In vitro transport across rabbit cornea (Ussing chamber); type: in vitro ADME
# Protocol: as §1
# [4] = test system: human sclera-choroid-RPE (SCRPE); experiment: In vitro transport of transporter substrate cassette across human sclera-choroid-RPE
# Protocol: In vitro transport studies across human cornea and sclera-choroid-RPE (SCRPE) were carried out according to previously published method using the cassette dosing approach. Briefly, cassette of drug transporter substrate including Gly-Sar (PEPT), L-tryptophan (ATB^0+), MPP^+ (OCT), and phenyl acetic acid (MCT) at concentration of 100 μM in assay buffer was prepared. Briefly, the human eyes were washed with assay buffer and cleaned from muscle and conjunctiva tissues, and anterior and posterior parts were separated by giving circumferential cut behind the limbus. Small sclera part was left with cornea, which helps in mounting of cornea on Ussing chambers. Neural retina was separated from the choroid-RPE by filling the eye cup with assay buffer, and floating retina was collected. After separation of retina, eye cup was divided into two rectangular pieces (˜1.5×1.5 cm) of sclera-choroid-RPE. Isolated tissues were mounted on modified Ussing chambers (Navicyte, Sparks, Nev.) such that the episcleral side of SCRPE or epithelial side of cornea was facing the donor chamber and retinal side or endothelial side of cornea is facing the receiver chamber. To study the effect of directionality on transport, one set of Ussing chambers mounted so that sclera side facing the donor side and another set was mounted so that choroid-RPE facing the donor side. The effect of directionality of transport across cornea was not evaluated. The chambers were filled with 1.5 ml of assay buffer with (donor side) or without (receiver side) the cocktail of drug transporter substrates. For study of effect of transporter inhibitors, cocktail mixture (500 μM) of transporter inhibitor was added on both donor and acceptor side.
# During the transport study, the bathing fluids were maintained at 37° C. using a circulating warm water and pH 7.4 using 95% air-5% CO2 aeration. Samples were collected (200 μL) form receiver side every hour for 6 hr and the lost volume was compensated with fresh assay buffer pre-equilibrated at 37° C. The drug levels were analyzed using a LC-MS/MS assay. Permeation data were corrected for dilution of the receiver solution with sample volume replenishment.
# Analytes concentrations in transport study samples were analyzed using LC-MS/MS method after 5-fold dilution with acetonitrile to reduce the salt concentrations. Cassette analysis method was developed for simultaneous analysis of Gly-Sar, L-tryptophan and MPP^+. Phenyl acetic acid was analyzed separately in negative ionization method and normal phase separation method. An API-3000 triple quadrupole mass spectrometry (Applied Biosystems, Foster City, Calif., USA) coupled with a PerkinElmer series-200 liquid chromatography (Perkin Elmer, Walthm, Mass., USA) system was used for analysis. Gly-Sar, L-tryptophan and MPP^+ were separated on Supelco C-5 column (2.1×10 mm, 3 μm) using water containing 0.1% formic acid (A) and acetonitrile:methanol (50:50 v/v) containing 0.1% formic acid (B) as mobile phase and a linear gradient elution at a flow rate of 0.3 ml/min with total run time of 9 min. Phenyl acetic acid was separated in normal phase separation mode using Obelisc-N silica column (2.1×10 mm, 3 μM) using 5 mM ammonium formate, pH 3.5 (A) and acetonitrile (B) as mobile phase in linear gradient mode at flow rate of 0.3 ml with total run time of 6 min. Gly-Sar, L-tryptophan, and MPP^+ were analyzed in positive ionization mode with following multiple reaction monitoring (MRM) transitions: 147→90 (Gly-Sar); 205→188 (L-tryptophan); 170→128 (MPP^+). Phenyl acetic acid was analyzed in negative ionization mode with following multiple reaction monitoring (MRM) transitions: 135→91 (Phenyl acetic acid).
# [5] = test system: calf sclera-choroid-RPE (SCRPE); experiment: In vitro transport of substrate cassette across normoxic and hypoxic calf SCRPE
# Excerpt: (§2) Animals used in this study were those that were sacrificed as part of other experiments approved by the Institutional Animal Care Committee of the Colorado State University (Fort Collins) and University of Colorado Anschutz Medical campus. Hypoxic and normoxic calf eyes were obtained from the Department of Physiology, School of Veterinary Medicine, Colorado State University (Fort Collins, Colo.). Briefly, 1 day old male Holstein calves (n=4) were kept in hypobaric hypoxic chambers (PB=445 mm Hg) for 2 weeks. For control experiment, age matched calves (n=4) were kept at ambient altitude (PB=650 mm Hg) and normoxia for two weeks. Hypoxic and normoxic rat eyes were obtained from the Department of Medicine, University of Colorado Anschutz Medical campus (Aurora, Colo.). Sprague Dawley rats (n=4) were maintained in hypobaric hypoxic chambers (PB=380 mm Hg) for 6 weeks and age matched controls were kept at ambient pressure and normoxia.
# (§3) In vitro transport studies across hypoxic and control calf cornea and sclera-choroid-RPE (SCRPE) were carried using cassette dosing approach. A cassette of drug transporter substrates, Gly-Sar (PEPT), valacylovir (ATB^0+), MPP^+ (OCT), and phenylacetic acid (MCT) at a concentration of 100 μM each in assay buffer was prepared. Briefly, the calf eyes were harvested immediately after euthanasia and transferred to the laboratory on ice. Upon arrival in the lab, the eyes were washed with assay buffer and cleaned from muscle and unwanted tissues. Anterior and posterior parts were separated by circumferential cut at the limbus. Vitreous was removed and the neural retina was separated from the choroid-RPE by filling the eye cup with assay buffer. The retina afloat in assay buffer was isolated and the eye cup was divided into two pieces (˜1.5×1.5 cm) of sclera-choroid-RPE. Isolated tissues were mounted on modified Ussing chambers (Navicyte, Sparks, Nev.) such that the episcleral side of SCRPE or epithelial side of cornea was facing the donor chamber and retinal side or endothelial side of the cornea was facing the receiver chamber. The chambers were filled with 1.5 ml of assay buffer at 37° C. with (donor side) or without (receiver side) the cocktail of drug transporter substrates. For the study of effect of transporter inhibitors, cocktail mixture (500 μM) of transporter inhibitors was added on both donor and acceptor sides.
# (§4) During the transport study, the bathing fluids were maintained at 37° C. using circulating warm water. The pH of the fluids was maintained at pH 7.4 using 95% air-5% CO2 aeration. Samples were collected (200 μL) from receiver side every hour for 6 hours and the removed volume was replaced with fresh assay buffer pre-equilibrated to 37° C. Drug levels were analyzed using a LC-MS/MS assay. Permeation data were corrected for dilution of the receiver concentrations with sample volume replenishment.
# (§5) Analyte concentrations in transport study samples were measured using LC-MS/MS method after 5-fold dilution with acetonitrile to reduce the salt concentrations. A cassette analysis method was developed for simultaneous analysis of Gly-Sar, valacylovir, and MPP Phenyl acetic acid was analyzed separately with a negative ionization method and a normal phase separation method. An API-3000 triple quadrupole mass spectrometry (Applied Biosystems, Foster City, Calif., USA) coupled with a PerkinElmer series-200 liquid chromatography (Perkin Elmer, Waltham, Mass., USA) system was used for analysis. Gly-Sar, valacylovir and MPP were separated on Supelco C-5 column (2.1×10 mm, 3 μm) using water containing 0.1% formic acid (A) and acetonitrile:methanol (50:50 v/v) containing 0.1% formic acid (B) as mobile phase. A linear gradient elution at a flow rate of 0.3 ml/min with a total run time of 9 min was employed. Phenyl acetic acid was separated in normal phase separation mode on Obelisc-N silica column (2.1×10 mm, 3 μM) using 5 mM ammonium formate at pH 3.5 (A) and acetonitrile (B) as mobile phase.
# [6] = test system: calf cornea; experiment: In vitro transport of substrate cassette across normoxic and hypoxic calf cornea
# Excerpt: as §2, §3, §4, §5
# [7] = test system: conjunctiva; experiment: In vitro transport of GFX prodrugs across conjunctiva; type: in vitro ADME, Rabbit
SMILES,solubility ([1]; water) [µg/mL],solubility ([1]; water for injection) [µg/mL],other results
"Cc1ccc(-c2cc(C(F)(F)F)nn2-c2ccc(S(=O)(=O)NC(=O)C(N)CCCCN)cc2)cc1 (stereo not shown) [CXB-LYS, 2,6-diamino-N-(4-(5-p-tolyl-3-(trifluoromethyl)-1H-pyrazol-1-yl)phenylsulfonyl)hexanamide]",50,50,–
"Cc1ccc(-c2cc(C(F)(F)F)nn2-c2ccc(S(=O)(=O)NC(=O)CCCN(C)C)cc2)cc1 [CXB-OCT, 4-(dimethylamino)-N-((4-(5-(p-tolyl)-3-(trifluoromethyl)-1H-pyrazol-1-yl)phenyl)sulfonyl)butanamide]",–,3220,–
Cc1ccc(-c2cc(C(F)(F)F)nn2-c2ccc(S(=O)(=O)NC(=O)C(N)CC(C)C)cc2)cc1 (stereo not shown) [CXB-LEU],–,16,–
Cc1ccc(-c2cc(C(F)(F)F)nn2-c2ccc(S(=O)(=O)NC(=O)C(N)CCCNC(=N)N)cc2)cc1 (stereo not shown) [CXB-ARG],35,35,–
"COc1c(N2CCN(C(=O)C(N)CCCCN)C(C)C2)c(F)cc2c(=O)c(C(=O)O)cn(C3CC3)c12 (stereo not shown) [GFX-LYS, 1-cyclopropyl-7-(4-(2,6-diaminohexanoyl)-3-methylpiperazin-1-yl)-6-fluoro-8-methoxy-4-oxo-1,4-dihydroquinoline-3-carboxylic acid]",48000,48000,cumulative % transport / permeability compared with GFX (in words) [2]: not significantly different from GFX; cumulative % transport / permeability compared with GFX (in words) [3]: not significantly different from GFX
CN(CC(=O)O)C(=O)CN [Gly-Sar] (H-Gly-[Sar]-OH),–,–,sclera to retina transport higher than retina to sclera transport [4]: 1.6-2.0 fold; apparent permeability (Papp) across hypoxic vs normoxic tissue (in words) [5]: significantly higher across normoxic SCRPE than hypoxic SCRPE; apparent permeability (Papp) across hypoxic vs normoxic tissue (in words) [6]: significantly higher across normoxic cornea than hypoxic cornea
"Cc1ccc(-c2cc(C(F)(F)F)nn2-c2ccc(S(=O)(=O)NC(=O)CCCC(=O)O)cc2)cc1 [CXB-MCT, 5-oxo-5-(4-(5-(p-tolyl)-3-(trifluoromethyl)-1H-pyrazol-1-yl)phenylsulfonamido)pentanoic acid]",–,620,–
"COc1c(N2CCNC(C)C2)c(F)cc2c(=O)c(C(=O)NCCCC(=O)O)cn(C3CC3)c12 (stereo not shown) [GFX-MCT, 4-(1-cyclopropyl-6-fluoro-8-methoxy-7-(3-methylpiperazin-1-yl)-4-oxo-1,4-dihydroquinoline-3-carboxamido)butanoic acid]",–,3010,cumulative % transport compared with GFX (in words) [7]: significantly (p<0.01) higher than GFX; transport in presence of nicotinic acid (competitive inhibitor of MCT) [7]: significantly inhibited; also recorded: only inhibited by nicotinic acid across conjunctiva; transport in presence of nicotinic acid (competitive inhibitor of MCT) ([2]; SCRPE): not across SCRPE; cumulative % transport / permeability compared with GFX (in words) [2]: significantly (p<0.01) higher than GFX; cumulative % transport / permeability compared with GFX (in words) [3]: significantly (p<0.01) higher than GFX
"COc1c(N2CCN(C(=O)C(N)CC(C)C)C(C)C2)c(F)cc2c(=O)c(C(=O)O)cn(C3CC3)c12 (stereo not shown) [GFX-LEU, 7-(4-(2-amino-4-methylpentanoyl)-3-methylpiperazin-1-yl)-1-cyclopropyl-6-fluoro-8-methoxy-4-oxo-1,4-dihydroquinoline-3-carboxylic acid]",–,2160,–
N[C@@H](Cc1c[nH]c2ccccc12)C(=O)O [L-tryptophan],–,–,"sclera to retina transport higher than retina to sclera transport ([4]; human, 6 h, 100 μM, pH 7.4): 1.6-2.0 fold"
